Source: PubChem BioAssay AID330 (DTP/NCI, 2004)
Several values for one entry are separate records, joined by “and”; a condition that tells them apart may be missing. Equal entries are not always repeated. Toxic doses and inconclusive results are not listed.

Tested on: P388 leukemia ip, CD2F1 mice, survival T/C
Assay: NCI In Vivo Anticancer Drug Screen. Data for tumor model P388 Leukemia (intraperitoneal) in CD2F1 (CDF1) mice
Conditions: endpoint: median survival time, higher = longer survival
In short: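 Mice carrying the transplanted tumor received test compound or vehicle. Survival was recorded in each group, and the value is the treated-group measurement divided by that of the vehicle-treated control group.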

[1] = dose: 50.0 mg/kg/injection, schedule: Q01DX005 (ip), vehicle: Klucel (hydroxypropylcellulose) (HPC)
[2] = dose: 100.0 mg/kg/injection, schedule: Q01DX005 (ip), vehicle: Klucel (hydroxypropylcellulose) (HPC)
[3] = dose: 200.0 mg/kg/injection, schedule: Q01DX005 (ip), vehicle: Klucel (hydroxypropylcellulose) (HPC)

Clc1ccc(-c2cc(-c3cc(-c4ccc(Cl)c(Cl)c4)n[nH]3)[nH]n2)cc1Cl
T/C (dose: 60.0 mg/kg/injection, schedule: Q01DX005 (ip), vehicle: Klucel (hydroxypropylcellulose) (HPC)): 97 % of control | T/C (dose: 120.0 mg/kg/injection, schedule: Q01DX005 (ip), vehicle: Klucel (hydroxypropylcellulose) (HPC)): 86 % of control | T/C (dose: 240.0 mg/kg/injection, schedule: Q01DX005 (ip), vehicle: Klucel (hydroxypropylcellulose) (HPC)): 96 % of control

Nc1ccc(N)c(N)n1
T/C (dose: 6.25 mg/kg/injection, schedule: Q01DX009 (ip), vehicle: saline): 95 % of control | T/C (dose: 12.5 mg/kg/injection, schedule: Q01DX009 (ip), vehicle: saline): 104 % of control | T/C (dose: 25.0 mg/kg/injection, schedule: Q01DX009 (ip), vehicle: saline): 100 % of control

C[n+]1c2ccccc2c(N)c2ccccc21
T/C (dose: 30.0 mg/kg/injection, schedule: Q04DX002 (ip), vehicle: saline with Tween-80): 117 % of control

Cc1nc(C(=O)N=C(N)N)c(N)nc1-c1ccccc1
T/C (dose: 15.0 mg/kg/injection, schedule: Q01DX005 (ip), vehicle: saline with Tween-80): 106 % of control | T/C (dose: 30.0 mg/kg/injection, schedule: Q01DX005 (ip), vehicle: saline with Tween-80): 104 % of control | T/C (dose: 60.0 mg/kg/injection, schedule: Q01DX005 (ip), vehicle: saline with Tween-80): 100 % of control

CCN1c2ccccc2S(=O)(=O)n2c(COc3ccccc3)nnc21
T/C (dose: 25.0 mg/kg/injection, schedule: Q01DX001 (ip), vehicle: saline with Tween-80): 95 % of control | T/C (dose: 50.0 mg/kg/injection, schedule: Q01DX001 (ip), vehicle: saline with Tween-80): 95 % of control | T/C (dose: 100.0 mg/kg/injection, schedule: Q01DX001 (ip), vehicle: saline with Tween-80): 87 % of control

Cc1ccc(S(=O)(=O)N/N=C/c2ccccc2)cc1
T/C (dose: 25.0 mg/kg/injection, schedule: Q01DX009 (ip), vehicle: Klucel (hydroxypropylcellulose) (HPC)): 95 % of control | T/C (dose: 50.0 mg/kg/injection, schedule: Q01DX009 (ip), vehicle: Klucel (hydroxypropylcellulose) (HPC)): 94 % of control | T/C (dose: 100.0 mg/kg/injection, schedule: Q01DX009 (ip), vehicle: Klucel (hydroxypropylcellulose) (HPC)): 95 % of control | T/C (dose: 200.0 mg/kg/injection, schedule: Q01DX009 (ip), vehicle: Klucel (hydroxypropylcellulose) (HPC)): 97 % of control | T/C (dose: 400.0 mg/kg/injection, schedule: Q01DX009 (ip), vehicle: Klucel (hydroxypropylcellulose) (HPC)): 109 % of control

CCCCCCC(Cn1ccnc1)c1ccc(Br)cc1 (stereo unspecified)
T/C (dose: 100.0 mg/kg/injection, schedule: Q04DX003 (ip), vehicle: saline with Tween-80): 100 % of control | T/C (dose: 200.0 mg/kg/injection, schedule: Q04DX003 (ip), vehicle: saline with Tween-80): 91 % of control

CC1(C)CC[P+](CC[P+]2(c3ccccc3)CCC(C)(C)c3ccccc32)(c2ccccc2)c2ccccc21 (stereo unspecified)
T/C (dose: 0.75 mg/kg/injection, schedule: Q01DX005 (ip), vehicle: saline): 103 % of control | T/C (dose: 1.5 mg/kg/injection, schedule: Q01DX005 (ip), vehicle: saline): 101 % of control | T/C (dose: 3.0 mg/kg/injection, schedule: Q01DX005 (ip), vehicle: saline): 103 % of control | T/C (dose: 3.12 mg/kg/injection, schedule: Q01DX005 (ip), vehicle: suspension in saline): 89 % of control | T/C (dose: 12.5 mg/kg/injection, schedule: Q01DX005 (ip), vehicle: saline with Tween-80): 100 % of control | T/C (dose: 25.0 mg/kg/injection, schedule: Q01DX005 (ip), vehicle: saline with Tween-80): 100 % of control | T/C (dose: 50.0 mg/kg/injection, schedule: Q01DX005 (ip), vehicle: saline with Tween-80): 102 % of control

O=C(O)C(Cc1ccccc1)Nc1ncnc2nc[nH]c12 (stereo unspecified)
T/C [1]: 93 % of control | T/C [2]: 100 % of control | T/C [3]: 100 % of control

CN1CCN(c2ccc3nc(-c4ccc5nc(-c6ccc(O)cc6)[nH]c5c4)[nH]c3c2)CC1
T/C (dose: 50.0 mg/kg/injection, schedule: Q01DX009 (ip), vehicle: saline): 153 % of control

CN(C)CCCSc1ccccc1NC1=C(Cl)C(=O)C(Nc2ccccc2SCCCN(C)C)=C(Cl)C1=O
T/C (dose: 6.25 mg/kg/injection, schedule: Q01DX005 (ip), vehicle: Klucel (hydroxypropylcellulose) (HPC)): 100 % of control | T/C (dose: 12.5 mg/kg/injection, schedule: Q01DX005 (ip), vehicle: Klucel (hydroxypropylcellulose) (HPC)): 106 % of control | T/C (dose: 25.0 mg/kg/injection, schedule: Q01DX005 (ip), vehicle: Klucel (hydroxypropylcellulose) (HPC)): 98 % of control | T/C [1]: 106 % of control | T/C [2]: 108 % of control | T/C [3]: 104 % of control

COc1cccc2c1C(=O)c1c(O)c3c(c(O)c1C2=O)CC(O)(C(O)CO)CC3OC1CC(N2CCCCC2)C(O)C(C)O1 (stereo unspecified)
T/C (dose: 0.39 mg/kg/injection, schedule: Q01DX009 (ip), vehicle: water): 115 % of control | T/C (dose: 1.56 mg/kg/injection, schedule: Q01DX009 (ip), vehicle: water): 153 % of control and 157 % of control | T/C (dose: 2.4 mg/kg/injection, schedule: Q04DX003 (ip), vehicle: water): 100 % of control | T/C (dose: 4.7 mg/kg/injection, schedule: Q04DX003 (ip), vehicle: water): 106 % of control | T/C (dose: 9.4 mg/kg/injection, schedule: Q04DX003 (ip), vehicle: water): 114 % of control and 124 % of control | T/C (dose: 18.8 mg/kg/injection, schedule: Q04DX003 (ip), vehicle: water): 124 % of control | T/C (dose: 75.0 mg/kg/injection, schedule: Q04DX003 (ip), vehicle: water): 101 % of control

CC[N+](C)(CC)CCOc1ccc(OCC[N+](C)(CC)CC)c2c1C(=O)c1ccccc1C2=O
T/C (dose: 0.78 mg/kg/injection, schedule: Q01DX005 (ip), vehicle: saline): 98 % of control | T/C (dose: 1.56 mg/kg/injection, schedule: Q01DX005 (ip), vehicle: saline): 109 % of control | T/C (dose: 3.12 mg/kg/injection, schedule: Q01DX005 (ip), vehicle: saline): 100 % of control

NC(CCS(=O)(=O)NO)C(=O)O (stereo unspecified)
T/C (dose: 12.5 mg/kg/injection, schedule: Q01DX009 (ip), vehicle: water): 89 % of control | T/C (dose: 25.0 mg/kg/injection, schedule: Q01DX009 (ip), vehicle: water): 99 % of control | T/C (dose: 50.0 mg/kg/injection, schedule: Q01DX009 (ip), vehicle: water): 90 % of control | T/C (dose: 100.0 mg/kg/injection, schedule: Q01DX009 (ip), vehicle: water): 102 % of control | T/C (dose: 200.0 mg/kg/injection, schedule: Q01DX009 (ip), vehicle: water): 99 % of control

c1cc2c3c(cccc3c1)NC(c1ccc3c(c1)OCO3)N2
T/C [1]: 100 % of control | T/C [2]: 100 % of control | T/C [3]: 95 % of control

Clc1ccc(S[As](Sc2ccc(Cl)cc2)Sc2ccc(Cl)cc2)cc1
T/C (dose: 100.0 mg/kg/injection, schedule: Q04DX002 (ip), vehicle: Klucel (hydroxypropylcellulose) (HPC)): 121 % of control | T/C (dose: 200.0 mg/kg/injection, schedule: Q04DX002 (ip), vehicle: Klucel (hydroxypropylcellulose) (HPC)): 114 % of control | T/C (dose: 400.0 mg/kg/injection, schedule: Q04DX002 (ip), vehicle: Klucel (hydroxypropylcellulose) (HPC)): 113 % of control

COC(=O)/C(=C/Cl)NC(C)=O
T/C (dose: 12.5 mg/kg/injection, schedule: Q01DX001 (ip), vehicle: suspension in saline): 91 % of control | T/C (dose: 25.0 mg/kg/injection, schedule: Q01DX001 (ip), vehicle: suspension in saline): 99 % of control | T/C (dose: 50.0 mg/kg/injection, schedule: Q01DX001 (ip), vehicle: suspension in saline): 92 % of control | T/C (dose: 200.0 mg/kg/injection, schedule: Q01DX001 (ip), vehicle: suspension in saline): 98 % of control

CC1(C)OC(=O)C(=Cc2ccc(-c3cc(C(F)(F)F)cc(C(F)(F)F)c3)o2)C(=O)O1
T/C [1]: 104 % of control | T/C [2]: 100 % of control | T/C [3]: 92 % of control

COc1cc2c(cc1-c1coc3cc4occc4cc3c1=O)OCO2
T/C (dose: 8.75 mg/kg/injection, schedule: Q01DX005 (ip), vehicle: saline with Tween-80): 87 % of control | T/C (dose: 35.0 mg/kg/injection, schedule: Q01DX005 (ip), vehicle: saline with Tween-80): 87 % of control | T/C (dose: 70.0 mg/kg/injection, schedule: Q01DX005 (ip), vehicle: saline with Tween-80): 89 % of control | T/C (dose: 140.0 mg/kg/injection, schedule: Q01DX005 (ip), vehicle: saline with Tween-80): 99 % of control

CCCOc1ccccc1NC(=O)CN1CCCC1
T/C (dose: 60.0 mg/kg/injection, schedule: Q01DX005 (ip), vehicle: saline): 104 % of control | T/C (dose: 120.0 mg/kg/injection, schedule: Q01DX005 (ip), vehicle: saline): 106 % of control | T/C (dose: 240.0 mg/kg/injection, schedule: Q01DX005 (ip), vehicle: saline): 116 % of control

CC1C(O)CC23COC(=O)C2=CCCC3C1(C)CCC1=CC(=O)OC1 (stereo unspecified)
T/C (dose: 8.75 mg/kg/injection, schedule: Q01DX005 (ip), vehicle: Klucel (hydroxypropylcellulose) (HPC)): 101 % of control | T/C (dose: 17.5 mg/kg/injection, schedule: Q01DX005 (ip), vehicle: Klucel (hydroxypropylcellulose) (HPC)): 106 % of control | T/C (dose: 35.0 mg/kg/injection, schedule: Q01DX005 (ip), vehicle: Klucel (hydroxypropylcellulose) (HPC)): 92 % of control | T/C (dose: 70.0 mg/kg/injection, schedule: Q01DX005 (ip), vehicle: Klucel (hydroxypropylcellulose) (HPC)): 97 % of control
